Data on 1 compound can be found in BindingDB's records for doi:10.1016/j.bmcl.2007.08.004 (Pfizer, 2007).

The structures appear in SMILES notation. pIC50: −log10 of the molar value.

For orientation: pIC50 means −log10 of the IC50, conventionally taken in molar units.

This assay concerns the target T1, 3-hydroxy-3-methylglutaryl-coenzyme A reductase (Rattus norvegicus, UniProt P51639).
T1 sequence (P51639 whole entry): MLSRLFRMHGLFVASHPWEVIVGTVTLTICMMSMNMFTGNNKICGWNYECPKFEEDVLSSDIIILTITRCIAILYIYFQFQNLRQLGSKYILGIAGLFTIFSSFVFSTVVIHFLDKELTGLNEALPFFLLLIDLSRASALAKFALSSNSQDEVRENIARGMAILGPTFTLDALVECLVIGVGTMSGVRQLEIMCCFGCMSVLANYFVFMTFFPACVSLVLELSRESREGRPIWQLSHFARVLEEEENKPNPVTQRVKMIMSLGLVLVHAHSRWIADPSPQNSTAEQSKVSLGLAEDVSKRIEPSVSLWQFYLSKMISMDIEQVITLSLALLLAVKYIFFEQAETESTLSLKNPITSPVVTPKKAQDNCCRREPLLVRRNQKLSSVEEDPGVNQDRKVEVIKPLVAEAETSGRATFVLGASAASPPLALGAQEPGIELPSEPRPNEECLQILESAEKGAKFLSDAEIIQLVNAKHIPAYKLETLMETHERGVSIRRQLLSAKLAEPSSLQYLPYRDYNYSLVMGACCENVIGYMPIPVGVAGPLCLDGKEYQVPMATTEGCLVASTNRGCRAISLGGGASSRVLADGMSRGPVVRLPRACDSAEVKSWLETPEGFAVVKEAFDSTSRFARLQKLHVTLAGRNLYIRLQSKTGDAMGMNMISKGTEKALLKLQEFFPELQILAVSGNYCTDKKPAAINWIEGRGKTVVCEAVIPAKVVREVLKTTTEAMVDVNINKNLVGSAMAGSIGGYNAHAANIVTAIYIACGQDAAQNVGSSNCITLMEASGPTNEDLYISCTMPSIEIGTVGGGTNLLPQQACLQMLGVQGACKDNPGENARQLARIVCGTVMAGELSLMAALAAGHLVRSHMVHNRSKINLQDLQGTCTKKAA
The experiment in a line: HMG-CoA Reductase In Vitro Assay. The source says:
Assay for HMG-CoA reductase was based on the conversion of isotopically labeled HMG-CoA to mevalonic acid using rat liver microsomes as enzyme source. The product, [14C]-mevalonic acid was lactonized and separated from excess substrate via an anion ion exchange resin column, and radioactivity was counted on a scintillation counter.

`CC(C)c1c(C(=O)N2CCc3ccccc3C2)nn(-c2ccc(F)cc2)c1OC[C@@H](O)C[C@@H](O)CC(=O)O` [(3R,5S)-6-{[1-(4-fluorophenyl)-4-(propan-2-yl)-3-(1,2,3,4-tetrahydroisoquinolin-2-ylcarbonyl)-1H-pyrazol-5-yl]oxy}-3,5-dihydroxyhexanoic acid] gave a pIC50 of 8.00.
